This experiment deals with MV-4-11 cells. Kind of experiment: Gene expression microarray analysis (Affymetrix PrimeView) and GSEA. It is filed as cell-based, human. The arrangement: RFU PODN (11730768_x_at) / Fold change /veh PODN (11730768_x_at) / RFU LINC00158 (11744669_a_at) / Fold change /veh LINC00158 (11744669_a_at) / RFU DUSP10 (11751237_a_at) / Fold change /veh DUSP10 (11751237_a_at) / RFU ID3 (11757404_x_at) / Fold change /veh ID3 (11757404_x_at) / RFU PLEKHG5 (11737974_s_at) / Fold change /veh PLEKHG5 (11737974_s_at) / RFU LRRC4B (11730491_at) / Fold change /veh LRRC4B (11730491_at) / RFU GIMAP4 (11747438_a_at) / Fold change /veh GIMAP4 (11747438_a_at) / RFU KRT8 (11758183_x_at) / Fold change /veh KRT8 (11758183_x_at) / RFU CNN1 (11734310_a_at) / Fold change /veh CNN1 (11734310_a_at) / RFU VPS37D (11726825_at) / Fold change /veh VPS37D (11726825_at) / RFU C10orf10 (11716522_x_at) / Fold change /veh C10orf10 (11716522_x_at) / RFU KIR2DL2 /// KIR2DL4 /// KIR2DL5A /// KIR2DL5B /// KIR2DS1 /// KIR2DS2 /// KIR2DS3 /// KIR2DS4 /// KIR3DL3 /// KIR3DL3 /// KIR3DS1 (11738374_at) / Fold change /veh KIR2DL2 /// KIR2DL4 /// KIR2DL5A /// KIR2DL5B /// KIR2DS1 /// KIR2DS2 /// KIR2DS3 /// KIR2DS4 /// KIR3DL3 /// KIR3DL3 /// KIR3DS1 (11738374_at) / RFU C1QL1 (11718748_at) / Fold change /veh C1QL1 (11718748_at) / RFU TMPRSS4 (11747572_a_at) / Fold change /veh TMPRSS4 (11747572_a_at) / RFU HAMP (11756126_x_at) / Fold change /veh HAMP (11756126_x_at) / RFU RNFT2 (11725882_a_at) / Fold change /veh RNFT2 (11725882_a_at) / RFU NR4A2 (11747474_a_at) / Fold change /veh NR4A2 (11747474_a_at) / RFU ABCC12 (11746883_a_at) / Fold change /veh ABCC12 (11746883_a_at) / RFU TMEM136 (11760407_x_at) / Fold change /veh TMEM136 (11760407_x_at) / RFU CLDN22 /// WWC2 (11732394_at) / Fold change /veh CLDN22 /// WWC2 (11732394_at) / RFU HLA-DPB1 (11760878_x_at) / Fold change /veh HLA-DPB1 (11760878_x_at) / RFU SPINT1 (11716480_a_at) / Fold change /veh SPINT1 (11716480_a_at) / RFU GAP43 (11754022_s_at) / Fold change /veh GAP43 (11754022_s_at) / RFU A4GNT (11735810_at) / Fold change /veh A4GNT (11735810_at) / RFU PRB3 (11715151_x_at) / Fold change /veh PRB3 (11715151_x_at) / RFU TUBB4B (11761932_at) / Fold change /veh TUBB4B (11761932_at) / RFU CAPN14 (11732068_a_at) / Fold change /veh CAPN14 (11732068_a_at) / RFU TMCC2 (11721928_a_at) / Fold change /veh TMCC2 (11721928_a_at) / RFU IRGQ (11745062_a_at) / Fold change /veh IRGQ (11745062_a_at) / RFU FAM174B (11720279_a_at) / Fold change /veh FAM174B (11720279_a_at) / RFU TMPRSS4 (11748680_a_at) / Fold change /veh TMPRSS4 (11748680_a_at) / RFU FAM212B (11763350_a_at) / Fold change /veh FAM212B (11763350_a_at) / RFU PLEKHG5 (11743358_a_at) / Fold change /veh PLEKHG5 (11743358_a_at) / RFU ZSCAN30 (11745921_a_at) / Fold change /veh ZSCAN30 (11745921_a_at) / RFU CMKLR1 (11741424_a_at) / Fold change /veh CMKLR1 (11741424_a_at) / RFU LOC101060620 /// MAPK8IP1 (11723275_at) / Fold change /veh LOC101060620 /// MAPK8IP1 (11723275_at) / RFU SPTSSB (11747773_x_at) / Fold change /veh SPTSSB (11747773_x_at) / RFU PRSS12 (11739890_at) / Fold change /veh PRSS12 (11739890_at) / RFU BIN1 (11741810_x_at) / Fold change /veh BIN1 (11741810_x_at) / RFU WNT11 (11732464_a_at) / Fold change /veh WNT11 (11732464_a_at) / RFU C10orf10 (11716521_a_at) / Fold change /veh C10orf10 (11716521_a_at) / RFU C5orf56 (11738089_at) / Fold change /veh C5orf56 (11738089_at) / RFU CYB561 (11721691_x_at) / Fold change /veh CYB561 (11721691_x_at) / RFU ANKRD19P (11752326_a_at) / Fold change /veh ANKRD19P (11752326_a_at) / RFU OR2T12 /// OR2T33 /// OR2T8 (11738714_s_at) / Fold change /veh OR2T12 /// OR2T33 /// OR2T8 (11738714_s_at) / RFU VCAN (11748164_a_at) / Fold change /veh VCAN (11748164_a_at) / RFU JSRP1 (11732532_at) / Fold change /veh JSRP1 (11732532_at) / RFU KRTAP10-11 (11738290_x_at) / Fold change /veh KRTAP10-11 (11738290_x_at) / RFU MYO3A (11730013_a_at) / Fold change /veh MYO3A (11730013_a_at) / RFU EBF3 (11725865_a_at) / Fold change /veh EBF3 (11725865_a_at) / RFU CAMK2N1 (11719241_x_at) / Fold change /veh CAMK2N1 (11719241_x_at) / RFU C5orf56 (11738088_a_at) / Fold change /veh C5orf56 (11738088_a_at) / RFU OLFML3 (11715873_a_at) / Fold change /veh OLFML3 (11715873_a_at) / RFU LOC100653217 /// NTM (11731650_a_at) / Fold change /veh LOC100653217 /// NTM (11731650_a_at) / RFU MAPK11 (11762145_a_at) / Fold change /veh MAPK11 (11762145_a_at) / RFU FIZ1 (11724087_x_at) / Fold change /veh FIZ1 (11724087_x_at) / RFU OASL (11726364_x_at) / Fold change /veh OASL (11726364_x_at) / RFU SOX15 (11748057_x_at) / Fold change /veh SOX15 (11748057_x_at) / RFU CD79A (11719716_a_at) / Fold change /veh CD79A (11719716_a_at) / RFU HIST1H1D (11736915_at) / Fold change /veh HIST1H1D (11736915_at) / RFU CASKIN2 (11723855_a_at) / Fold change /veh CASKIN2 (11723855_a_at) / RFU LOC730098 (11760151_x_at) / Fold change /veh LOC730098 (11760151_x_at) / RFU OR4N2 (11742367_at) / Fold change /veh OR4N2 (11742367_at) / RFU PRRT2 (11749266_a_at) / Fold change /veh PRRT2 (11749266_a_at) / RFU SNX32 (11753110_a_at) / Fold change /veh SNX32 (11753110_a_at) / RFU CDHR5 (11726645_a_at) / Fold change /veh CDHR5 (11726645_a_at) / RFU RCAN1 (11760418_a_at) / Fold change /veh RCAN1 (11760418_a_at) / RFU FAM167A (11723789_a_at) / Fold change /veh FAM167A (11723789_a_at) / RFU FAM26E (11764081_at) / Fold change /veh FAM26E (11764081_at) / RFU ISYNA1 (11749810_s_at) / Fold change /veh ISYNA1 (11749810_s_at) / RFU ACY1 (11761880_at) / Fold change /veh ACY1 (11761880_at) / RFU 11764098_at / Fold change /veh 11764098_at / RFU SAMD14 (11745864_x_at) / Fold change /veh SAMD14 (11745864_x_at) / RFU NPB (11741838_a_at) / Fold change /veh NPB (11741838_a_at) / RFU TMPRSS6 (11731388_a_at) / Fold change /veh TMPRSS6 (11731388_a_at) / RFU KRTAP10-2 (11738614_at) / Fold change /veh KRTAP10-2 (11738614_at) / RFU ARHGAP8 /// PRR5-ARHGAP8 (11727945_x_at) / Fold change /veh ARHGAP8 /// PRR5-ARHGAP8 (11727945_x_at) / RFU KRTAP5-7 /// NADSYN1 (11734609_at) / Fold change /veh KRTAP5-7 /// NADSYN1 (11734609_at) / RFU RASL12 (11751679_a_at) / Fold change /veh RASL12 (11751679_a_at) / RFU CDKN2B (11736163_a_at) / Fold change /veh CDKN2B (11736163_a_at) / RFU PRF1 (11729649_at) / Fold change /veh PRF1 (11729649_at) / RFU, ZNF638 /// ZNF638-IT1 / Fold change vs veh, ZNF638 /// ZNF638-IT1 / RFU, PANK3 / Fold change vs veh, PANK3 / RFU, SH3YL1 / Fold change vs veh, SH3YL1 / RFU, ZEB2 / Fold change vs veh, ZEB2 / RFU, NRIP1 / Fold change vs veh, NRIP1 / RFU, PTTG1IP / Fold change vs veh, PTTG1IP / RFU, CAPN2 / Fold change vs veh, CAPN2 / RFU, MED14 / Fold change vs veh, MED14 / RFU, SNORA58 / Fold change vs veh, SNORA58 / RFU, C1orf63 / Fold change vs veh, C1orf63 / RFU, LRRFIP1 / Fold change vs veh, LRRFIP1 / RFU, NDUFAF7 / Fold change vs veh, NDUFAF7 / RFU, SLC12A2 / Fold change vs veh, SLC12A2 / RFU, IBTK / Fold change vs veh, IBTK / RFU, ESF1 / Fold change vs veh, ESF1 / Fold change vs veh, TMEM50B / RFU, TAOK1 / Fold change vs veh, TAOK1 / RFU, ACBD3 / Fold change vs veh, ACBD3 / RFU, TMA16 / Fold change vs veh, TMA16 / RFU, RWDD3 / Fold change vs veh, RWDD3 / RFU, BCAT1 / Fold change vs veh, BCAT1 / RFU, EDEM3 / Fold change vs veh, EDEM3 / RFU, TMEM33 / Fold change vs veh, TMEM33 / RFU, WDR75 / Fold change vs veh, WDR75 / RFU, AHCTF1 / Fold change vs veh, AHCTF1 / RFU, TFRC / Fold change vs veh, TFRC / RFU, ZDHHC17 / Fold change vs veh, ZDHHC17 / RFU, NOM1 / Fold change vs veh, NOM1 / RFU, ARL8B / Fold change vs veh, ARL8B / RFU, ZBTB11 / Fold change vs veh, ZBTB11 / RFU, TAMM41 / Fold change vs veh, TAMM41 / RFU, KIAA1704 /// LOC100996395 / Fold change vs veh, KIAA1704 /// LOC100996395 / RFU, ING1 / Fold change vs veh, ING1 / RFU, TRMT61B / Fold change vs veh, TRMT61B / RFU, FUBP3 / Fold change vs veh, FUBP3 / RFU, TP53 / Fold change vs veh, TP53 / RFU, TNKS2 / Fold change vs veh, TNKS2 / RFU, ZFP14 / Fold change vs veh, ZFP14 / RFU, ACTR2 / Fold change vs veh, ACTR2 / RFU, PPP3R1 / Fold change vs veh, PPP3R1 / RFU, PIK3R1 / Fold change vs veh, PIK3R1 / RFU, HNRNPA1 / Fold change vs veh, HNRNPA1 / RFU, RNF170 / Fold change vs veh, RNF170 / RFU, ZNF28 / Fold change vs veh, ZNF28 / RFU, RNGTT / Fold change vs veh, RNGTT / RFU, OGT / Fold change vs veh, OGT / RFU, BRD1 / Fold change vs veh, BRD1 / RFU, MARS / Fold change vs veh, MARS / RFU, ZNF655 / Fold change vs veh, ZNF655 / RFU, FAHD1 / Fold change vs veh, FAHD1 / RFU, BDP1 / Fold change vs veh, BDP1 / RFU, LRRCC1 / Fold change vs veh, LRRCC1 / RFU, ARID1A / Fold change vs veh, ARID1A / RFU, ZNF146 / Fold change vs veh, ZNF146 / RFU, ZNF330 / Fold change vs veh, ZNF330 / RFU, GPN3 / Fold change vs veh, GPN3 / RFU, C9orf123 / Fold change vs veh, C9orf123 / RFU, N4BP2L2 / Fold change vs veh, N4BP2L2 / RFU, ARFIP1 / Fold change vs veh, ARFIP1 / RFU, FAM179B / Fold change vs veh, FAM179B / RFU, BCL10 / Fold change vs veh, BCL10 / RFU, UHRF1BP1L / Fold change vs veh, UHRF1BP1L / RFU, BET1 / Fold change vs veh, BET1 / RFU, CNOT2 / Fold change vs veh, CNOT2 / RFU, ZNF268 / Fold change vs veh, ZNF268 / Fold change vs veh, ZNF507 / RFU, DGCR2 / Fold change vs veh, DGCR2 / RFU, WDSUB1 / Fold change vs veh, WDSUB1 / Fold change vs veh, HSP90B1 /// MIR3652 / RFU, ADSS / Fold change vs veh, ADSS / RFU, GK / Fold change vs veh, GK / RFU, ZNF148 / Fold change vs veh, ZNF148 / RFU, TAF9 / Fold change vs veh, TAF9 / RFU, SLC1A5 / Fold change vs veh, SLC1A5 / RFU, SLMO2 / Fold change vs veh, SLMO2 / RFU, ABCC4 / Fold change vs veh, ABCC4 / RFU, LOC101060439 /// RAP1B / Fold change vs veh, LOC101060439 /// RAP1B / RFU, RFX7 / Fold change vs veh, RFX7 / RFU, GTPBP10 / Fold change vs veh, GTPBP10 / RFU, CNEP1R1 / Fold change vs veh, CNEP1R1 / RFU, BIVM-ERCC5 /// ERCC5 / Fold change vs veh, BIVM-ERCC5 /// ERCC5 / RFU, ILF3 / Fold change vs veh, ILF3 / RFU 11762660_at / Fold change /veh 11762660_at / RFU VCAN (11757783_s_at) / Fold change /veh VCAN (11757783_s_at) / RFU DDX43 (11728927_at) / Fold change /veh DDX43 (11728927_at) / RFU KRT8 (11758188_x_at) / Fold change /veh KRT8 (11758188_x_at) / RFU NKD1 (11759106_at) / Fold change /veh NKD1 (11759106_at) / RFU SRD5A1 (11742802_a_at) / Fold change /veh SRD5A1 (11742802_a_at) / RFU TPSAB1 /// TPSB2 (11721975_s_at) / Fold change /veh TPSAB1 /// TPSB2 (11721975_s_at) / RFU GSTM3 (11746129_a_at) / Fold change /veh GSTM3 (11746129_a_at) / RFU IL23R (11737362_x_at) / Fold change /veh IL23R (11737362_x_at) / RFU TMEM51 (11727254_a_at) / Fold change /veh TMEM51 (11727254_a_at) / RFU PIWIL2 (11732686_x_at) / Fold change /veh PIWIL2 (11732686_x_at) / RFU ORM1 (11744905_x_at) / Fold change /veh ORM1 (11744905_x_at) / RFU CCDC152 (11743942_at) / Fold change /veh CCDC152 (11743942_at) / RFU ECM1 (11717891_a_at) / Fold change /veh ECM1 (11717891_a_at) / RFU IL23R (11748794_a_at) / Fold change /veh IL23R (11748794_a_at) / RFU TNFAIP8L3 (11732012_x_at) / Fold change /veh TNFAIP8L3 (11732012_x_at) / RFU MBOAT4 (11741988_at) / Fold change /veh MBOAT4 (11741988_at) / RFU 11764193_at / Fold change /veh 11764193_at / RFU TMEM53 (11763286_at) / Fold change /veh TMEM53 (11763286_at) / RFU MAGEB2 (11727129_at) / Fold change /veh MAGEB2 (11727129_at) / RFU TMEM200A (11744735_a_at) / Fold change /veh TMEM200A (11744735_a_at) / RFU CCDC152 (11751479_a_at) / Fold change /veh CCDC152 (11751479_a_at) / RFU FAM211A (11726209_a_at) / Fold change /veh FAM211A (11726209_a_at) / RFU RGS16 (11746705_a_at) / Fold change /veh RGS16 (11746705_a_at) / RFU VCAN (11755009_s_at) / Fold change /veh VCAN (11755009_s_at) / RFU RHOB (11743442_s_at) / Fold change /veh RHOB (11743442_s_at) / RFU RGS16 (11720943_a_at) / Fold change /veh RGS16 (11720943_a_at) / RFU RGS16 (11720944_at) / Fold change /veh RGS16 (11720944_at) / RFU, VPS4B / Fold change vs veh, VPS4B / RFU, CREB1 / Fold change vs veh, CREB1 / RFU, DNAJC13 / Fold change vs veh, DNAJC13 / RFU, GNAQ / Fold change vs veh, GNAQ / RFU, CDK5R1 / Fold change vs veh, CDK5R1 / RFU, ZRANB3 / Fold change vs veh, ZRANB3 / RFU, CUL4A / Fold change vs veh, CUL4A / RFU, CCNY / Fold change vs veh, CCNY / RFU, UFL1 / Fold change vs veh, UFL1 / RFU, COG3 / Fold change vs veh, COG3 / RFU, DIAPH2 / Fold change vs veh, DIAPH2 / RFU, SKA2 / Fold change vs veh, SKA2 / RFU, AFF3 / Fold change vs veh, AFF3 / RFU, LMF1 / Fold change vs veh, LMF1 / RFU, IPO11 / Fold change vs veh, IPO11 / RFU, DFFB / Fold change vs veh, DFFB / RFU, FOXP1 / Fold change vs veh, FOXP1 / RFU, CARD8 / Fold change vs veh, CARD8 / RFU, STRN3 / Fold change vs veh, STRN3 / RFU, ADK / Fold change vs veh, ADK / RFU, RASSF2 / Fold change vs veh, RASSF2 / RFU, WIPF1 / Fold change vs veh, WIPF1 / RFU, LARP1B / Fold change vs veh, LARP1B / RFU, RASA1 / Fold change vs veh, RASA1 / RFU, RB1 / Fold change vs veh, RB1 / RFU, PPFIA1 / Fold change vs veh, PPFIA1 / RFU, MAT2A / Fold change vs veh, MAT2A / RFU, CCT5 / Fold change vs veh, CCT5 / RFU, WDR92 / Fold change vs veh, WDR92 / RFU, CUX1 / Fold change vs veh, CUX1 / RFU, TTC7A / Fold change vs veh, TTC7A / RFU, TMEM135 / Fold change vs veh, TMEM135 / RFU, DEPTOR / Fold change vs veh, DEPTOR / RFU, CPM / Fold change vs veh, CPM / RFU, DNAJB6 / Fold change vs veh, DNAJB6 / RFU, CACNA2D3 / Fold change vs veh, CACNA2D3 / RFU, DTX4 / Fold change vs veh, DTX4 / RFU, TFCP2 / Fold change vs veh, TFCP2 / RFU, GMCL1 /// GMCL1P1 / Fold change vs veh, GMCL1 /// GMCL1P1 / RFU, AEBP2 / Fold change vs veh, AEBP2 / RFU, SNHG1 /// SNORD22 /// SNORD25 /// SNORD26 /// SNORD27 /// SNORD28 /// SNORD29 /// SNORD31 / Fold change vs veh, SNHG1 /// SNORD22 /// SNORD25 /// SNORD26 /// SNORD27 /// SNORD28 /// SNORD29 /// SNORD31 / Fold change (Aza/veh), C12orf56 (ProbeSet 11735607_a_at) / Fold change (ACY-1035/veh), C12orf56 (ProbeSet 11735607_a_at) / Fold change (Aza/veh), FGFR1OP (ProbeSet 11751329_s_at) / Fold change (ACY-1035/veh), FGFR1OP (ProbeSet 11751329_s_at) / Fold change (Aza/veh), VPS36 (ProbeSet 11739960_a_at) / Fold change (ACY-1035/veh), VPS36 (ProbeSet 11739960_a_at) / RFU SYPL1 (11715823_x_at) / Fold change /veh SYPL1 (11715823_x_at) / RFU IGFBP7 (11715501_s_at) / Fold change /veh IGFBP7 (11715501_s_at) / RFU REEP3 (11722064_at) / Fold change /veh REEP3 (11722064_at) / RFU IGLL1 (11728026_x_at) / Fold change /veh IGLL1 (11728026_x_at): dose or concentration left out as unconfirmed. Particulars: MV-4-11 cells, 48 hours.

In the case of `Nc1ccc(-c2cccs2)cc1NC(=O)c1ccc2c(c1)cc(C1CC1)n2CCN1CCOCC1` [ACY-1035], the “RFU 11762660_at” value stood at 11.56 RFU.

For the origin of these results see article PMC5218480 (PLoS ONE, 2017).
